Source: publication PMC8546689, “High-Throughput Screen for Inhibitors of the Type IV Pilus Assembly ATPase PilB” (mSphere, 2021)

Columns and labels:
Type in all cases: binding
[1] = target: T1, PilB (CtPilB), type IV pilus assembly ATPase (Chloracidobacterium thermophilum, UniProt G2LDI3); assay: fluorescence enhancement titration of MANT-ATP with CtPilB
T1 construct: gene Cabther_A1696

[2] = target: T1, PilB (CtPilB), type IV pilus assembly ATPase; assay: competitive displacement of fluorescent MANT-ATP (IC50 […])
[3] = target: T1, PilB (CtPilB), type IV pilus assembly ATPase; assay: competitive displacement of fluorescent MANT-ATP

T1 sequence (G2LDI3 entry or part of it): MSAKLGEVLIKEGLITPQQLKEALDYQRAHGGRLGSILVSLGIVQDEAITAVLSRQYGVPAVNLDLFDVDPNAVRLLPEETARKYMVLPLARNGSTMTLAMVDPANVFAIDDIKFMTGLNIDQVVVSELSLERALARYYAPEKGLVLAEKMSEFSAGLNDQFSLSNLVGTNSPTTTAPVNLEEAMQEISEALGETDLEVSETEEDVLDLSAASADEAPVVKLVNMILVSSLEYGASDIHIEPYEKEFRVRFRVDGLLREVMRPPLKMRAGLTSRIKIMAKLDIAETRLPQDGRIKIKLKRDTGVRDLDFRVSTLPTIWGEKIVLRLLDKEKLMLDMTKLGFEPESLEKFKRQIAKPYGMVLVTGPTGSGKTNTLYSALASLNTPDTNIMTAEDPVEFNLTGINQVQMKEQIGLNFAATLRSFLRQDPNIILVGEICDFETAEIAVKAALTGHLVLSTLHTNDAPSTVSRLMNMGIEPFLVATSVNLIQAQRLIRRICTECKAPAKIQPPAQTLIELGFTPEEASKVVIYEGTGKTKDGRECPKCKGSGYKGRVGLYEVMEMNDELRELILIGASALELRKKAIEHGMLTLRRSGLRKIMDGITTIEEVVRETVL

CNc1ccccc1C(=O)O[C@H]1[C@@H](O)[C@H](n2cnc3c(N)ncnc32)O[C@@H]1CO[P@@](=O)(O)O[P@](=O)(O)OP(=O)(O)O [MANT-ATP]
Kd [1]: 290 ± 10 nM

Nc1ncnc2c1ncn2[C@@H]1O[C@H](COP(=O)(O)OP(=O)(O)OP(=O)(O)O)[C@@H](O)[C@H]1O [ATP]
Ki [2]: 2200 nM

Nc1ncnc2c1ncn2[C@@H]1O[C@H](COP(=O)(O)OP(=O)(O)O)[C@@H](O)[C@H]1O [ADP]
IC50 [3]: 3070 nM
